Measured values from ChEMBL document CHEMBL1201862, “PubChem BioAssay data set” (2004).
Active and inactive are the calls of the source.

Columns and labels:
cells = format: functional, cell-based; details: HEK-CNG
Galanin receptor type 2 = Galanin receptor type 2 (Homo sapiens, UniProt O43603); assay: Dose Response cell-based high-throughput screening assay to identify antagonists of galanin receptor 2 (GALR2). [Related pubchem assays: 828, 866 ]; format: functional
Ion channel NompC = Ion channel NompC (Danio rerio, UniProt Q7T1G6); assay: Dose response cell-based high-throughput screening assay for agonists of the transient receptor potential channel N1 (TRPN1). [Related pubchem assays (depositor defined):AID1424, AID1448]; format: functional
Mucolipin-3 = target: T1, Mucolipin-3 (Homo sapiens, UniProt Q8TDD5); assay: Fluorescence counterscreen assay for […] agonists: dose response cell-based high-throughput screening assay to identify agonists of the transient receptor potential channel ML3 (TRPML3). [Related pubchem assays: 1424, 1448 ]; format: functional
T1 sequence (Q8TDD5 whole entry): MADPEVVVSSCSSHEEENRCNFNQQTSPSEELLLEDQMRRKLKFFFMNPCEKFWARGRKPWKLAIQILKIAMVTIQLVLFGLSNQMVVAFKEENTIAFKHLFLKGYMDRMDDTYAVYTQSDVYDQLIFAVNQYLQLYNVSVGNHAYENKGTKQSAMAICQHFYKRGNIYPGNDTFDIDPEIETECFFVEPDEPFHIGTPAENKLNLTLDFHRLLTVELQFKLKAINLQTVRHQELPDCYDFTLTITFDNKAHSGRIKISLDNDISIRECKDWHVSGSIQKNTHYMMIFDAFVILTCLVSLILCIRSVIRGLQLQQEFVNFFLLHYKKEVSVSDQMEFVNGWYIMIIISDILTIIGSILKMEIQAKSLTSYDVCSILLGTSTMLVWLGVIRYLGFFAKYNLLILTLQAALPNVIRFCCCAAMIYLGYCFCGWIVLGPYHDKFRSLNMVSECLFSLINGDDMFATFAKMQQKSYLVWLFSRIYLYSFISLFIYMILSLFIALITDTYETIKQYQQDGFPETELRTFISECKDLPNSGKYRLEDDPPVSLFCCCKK

Galanin receptor type 3 = target: T2, Galanin receptor type 3 (Homo sapiens, UniProt O60755); assay: Fluorescence-based cell-based primary high throughput dose response assay to identify antagonists of the Galanin Receptor 3 (GalR3).; format: functional
T2 sequence (O60755 whole entry): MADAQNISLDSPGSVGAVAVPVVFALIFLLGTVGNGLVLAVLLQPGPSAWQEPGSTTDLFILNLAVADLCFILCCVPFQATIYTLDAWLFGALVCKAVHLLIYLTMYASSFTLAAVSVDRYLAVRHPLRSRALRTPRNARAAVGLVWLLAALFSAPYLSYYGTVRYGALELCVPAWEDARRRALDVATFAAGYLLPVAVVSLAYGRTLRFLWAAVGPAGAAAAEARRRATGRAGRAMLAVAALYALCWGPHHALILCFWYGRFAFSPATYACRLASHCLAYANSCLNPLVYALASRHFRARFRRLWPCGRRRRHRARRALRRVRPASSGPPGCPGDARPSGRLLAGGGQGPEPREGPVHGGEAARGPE

INS1 = assay: beta cell apoptosis inhibitors, cytokine rescue, dose response, luminescence, retest (AID 449756); format: functional, cell-based; details: Rattus norvegicus;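 note: cell death triggered by IL-1 beta plus TNF-alpha plus IFN-gamma mixture; protective hits raise ATP signal compared with cytokine alone wells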
[1] = target: T3, Kappa-type opioid receptor (Homo sapiens, UniProt P41145); assay: SAR analysis of small molecule antagonists of the kappa opioid receptor via a luminescent beta-arrestin assay - Set 3. [Related pubchem assays (depositor defined):AID1777, AID1778, AID1785, AID1786, AID1966, AID2133, AID2136, AID2285, AID2495]; format: functional
[2] = target: T3, Kappa-type opioid receptor; assay: SAR analysis of Antagonists of the Kappa Opioid Receptor (KOR) using an Image-Based Assay - Set 3. [Related pubchem assays (depositor defined):AID1777, AID1785]; format: functional
Mu-type opioid receptor = Mu-type opioid receptor (Homo sapiens, UniProt P35372); assay: SAR Analysis of Antagonists of the MOR Receptor using an Image-Based Assay - Set 3. [Related pubchem assays (depositor defined):AID1777, AID1785, AID1786, AID1966, AID2133, AID2136, AID2284, AID2285, AID2420]; format: functional
[3] = target: Delta-type opioid receptor (Homo sapiens, UniProt P41143); assay: SAR Analysis of Antagonists of the DOR Receptor using an Image-Based Assay - Set 3. [Related pubchem assays (depositor defined):AID1777, AID1785]; format: functional;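 note: U2OS cells expressing DOR1 and beta-arrestin GFP stimulated with 100 nM SNC80; imaging of GFP-tagged beta-arrestin moving into spots after receptor activation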
HEK293 [4] = assay: NOD1 signaling inhibitors, primary screen, cell-based, luminescence, uHTS (AID 1578); format: functional; details: Homo sapiens
[5] = target: Transitional endoplasmic reticulum ATPase (Homo sapiens, UniProt P55072, C522A); assay: C522A mutant p97 ATPase inhibitors, dose response, counter-screen for p97 inhibitor project, biochemical, luminescence (AID 1544)
HEK293 [6] = assay: cells; details: Homo sapiens
[7] = target: T4, Nucleotide-binding oligomerization domain-containing protein 1 (Homo sapiens, UniProt Q9Y239); assay: SAR analysis of compounds that inhibit NOD1 - Set 2. [Related pubchem assays (depositor defined):AID1566, AID1575, AID1578, AID1849, AID1852, AID2333, AID2335, AID2798]; format: functional
T4 sequence (Q9Y239 whole entry): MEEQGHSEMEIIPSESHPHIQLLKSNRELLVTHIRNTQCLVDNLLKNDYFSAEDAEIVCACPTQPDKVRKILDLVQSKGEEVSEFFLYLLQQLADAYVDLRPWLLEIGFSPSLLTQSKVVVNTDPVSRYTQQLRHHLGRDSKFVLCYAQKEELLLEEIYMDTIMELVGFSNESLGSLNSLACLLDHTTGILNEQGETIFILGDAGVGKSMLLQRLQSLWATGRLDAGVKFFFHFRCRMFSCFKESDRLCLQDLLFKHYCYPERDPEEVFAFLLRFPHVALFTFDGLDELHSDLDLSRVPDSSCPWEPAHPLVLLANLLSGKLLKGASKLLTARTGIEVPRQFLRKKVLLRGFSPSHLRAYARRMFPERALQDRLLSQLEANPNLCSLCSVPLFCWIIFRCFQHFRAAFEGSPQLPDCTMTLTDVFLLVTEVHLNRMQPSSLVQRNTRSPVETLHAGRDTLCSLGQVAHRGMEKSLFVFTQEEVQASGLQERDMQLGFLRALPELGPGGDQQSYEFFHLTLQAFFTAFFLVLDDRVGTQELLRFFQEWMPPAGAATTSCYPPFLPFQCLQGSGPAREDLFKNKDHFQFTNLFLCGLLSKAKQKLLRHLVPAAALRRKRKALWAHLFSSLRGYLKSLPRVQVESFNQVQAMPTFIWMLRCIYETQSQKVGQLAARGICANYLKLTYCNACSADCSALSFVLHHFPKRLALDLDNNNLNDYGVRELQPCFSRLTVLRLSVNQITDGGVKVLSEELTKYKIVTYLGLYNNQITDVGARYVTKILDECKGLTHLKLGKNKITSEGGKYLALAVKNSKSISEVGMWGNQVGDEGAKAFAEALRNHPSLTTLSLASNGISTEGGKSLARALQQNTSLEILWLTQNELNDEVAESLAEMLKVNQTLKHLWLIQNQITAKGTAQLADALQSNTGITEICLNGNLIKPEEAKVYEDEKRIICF

[8] = target: T5, Nucleotide-binding oligomerization domain-containing protein 2 (Homo sapiens, UniProt Q9HC29); assay: PubChem AID 2334; format: functional
[9] = target: T5, Nucleotide-binding oligomerization domain-containing protein 2; assay: NOD2 signaling inhibitors, cell-based, luminescence, uHTS, HEK293 (AID 1566); format: functional
HEK293 [10] = assay: NOD2 signaling inhibitors in MDP-stimulated cells, cell-based, uHTS, luminescence (AID 2001); format: functional; details: Homo sapiens
[11] = target: T4, Nucleotide-binding oligomerization domain-containing protein 1; assay: NOD1 signaling inhibitors, SAR follow-up, revised (AID 2333); format: functional
Tumor necrosis factor [12] = target: T6, Tumor necrosis factor (Homo sapiens, UniProt P01375); assay: TNFa-triggered NF-kB activation inhibitors, SAR follow-up, cell-based, set 2 (AID 2483); format: functional
[13] = target: Transitional endoplasmic reticulum ATPase (Homo sapiens, UniProt P55072); assay: p97 ATPase inhibitors, dose response, biochemical (AID 1534)
[14] = target: T5, Nucleotide-binding oligomerization domain-containing protein 2; assay: NOD2 inhibitors, SAR follow-up, set 2 (AID 2475); format: functional
HEK293 [15] = assay: cells; format: functional, cell-based; details: Homo sapiens
Tumor necrosis factor [16] = target: T6, Tumor necrosis factor; assay: TNFa-triggered NF-kB activation inhibitors, SAR follow-up, cell-based, revised (AID 2337); format: functional
HEK293 [17] = assay: cells; format: functional, cell-based; details: Homo sapiens; remark: listed apart in the source
HEK293 [18] = assay: cells; format: functional, cell-based; details: Homo sapiens; remark: listed apart in the source
HEK293 [19] = assay: SAR analysis of compounds that are cytotoxic to HEK293 - Set 2. [Related pubchem assays (depositor defined):AID1575, AID1578, AID1849, AID2001, AID2333, AID2334, AID2335, AID2337, AID2800]; format: functional, cell-based; details: Homo sapiens

T5 sequence (Q9HC29 whole entry, the tested form may be a part): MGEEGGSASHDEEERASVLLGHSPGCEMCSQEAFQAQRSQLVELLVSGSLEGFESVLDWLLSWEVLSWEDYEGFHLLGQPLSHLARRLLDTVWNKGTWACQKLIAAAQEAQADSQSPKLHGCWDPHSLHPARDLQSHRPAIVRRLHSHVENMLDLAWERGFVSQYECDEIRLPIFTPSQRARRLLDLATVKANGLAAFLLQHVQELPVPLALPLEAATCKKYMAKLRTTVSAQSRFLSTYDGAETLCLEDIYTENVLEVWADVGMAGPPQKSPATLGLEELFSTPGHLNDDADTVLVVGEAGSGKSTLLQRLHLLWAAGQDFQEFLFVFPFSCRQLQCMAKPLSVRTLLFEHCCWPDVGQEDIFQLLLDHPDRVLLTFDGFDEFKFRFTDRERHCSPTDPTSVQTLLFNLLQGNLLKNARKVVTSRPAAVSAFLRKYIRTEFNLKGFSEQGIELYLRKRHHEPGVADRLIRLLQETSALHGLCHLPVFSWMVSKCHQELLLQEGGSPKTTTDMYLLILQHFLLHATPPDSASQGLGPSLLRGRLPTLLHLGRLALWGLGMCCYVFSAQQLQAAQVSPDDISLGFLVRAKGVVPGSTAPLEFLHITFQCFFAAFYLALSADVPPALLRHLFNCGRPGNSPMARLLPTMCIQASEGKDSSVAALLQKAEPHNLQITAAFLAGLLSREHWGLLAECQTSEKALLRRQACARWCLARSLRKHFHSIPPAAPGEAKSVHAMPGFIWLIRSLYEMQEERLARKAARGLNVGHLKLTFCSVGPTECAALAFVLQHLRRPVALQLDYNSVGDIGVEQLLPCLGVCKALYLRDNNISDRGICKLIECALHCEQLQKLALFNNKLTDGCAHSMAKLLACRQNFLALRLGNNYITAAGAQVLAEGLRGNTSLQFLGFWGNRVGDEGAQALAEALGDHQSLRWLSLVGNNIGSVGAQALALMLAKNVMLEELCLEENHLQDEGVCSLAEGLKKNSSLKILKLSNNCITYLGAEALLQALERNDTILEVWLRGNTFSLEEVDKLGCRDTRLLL
T6 sequence (P01375 whole entry): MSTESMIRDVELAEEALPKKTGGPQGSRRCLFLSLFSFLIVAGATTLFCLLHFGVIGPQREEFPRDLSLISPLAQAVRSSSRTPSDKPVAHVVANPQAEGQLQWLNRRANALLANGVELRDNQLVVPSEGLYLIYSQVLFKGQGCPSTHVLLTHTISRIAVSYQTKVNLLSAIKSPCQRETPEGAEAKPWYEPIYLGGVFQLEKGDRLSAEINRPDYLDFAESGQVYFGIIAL
T3 sequence (P41145 whole entry): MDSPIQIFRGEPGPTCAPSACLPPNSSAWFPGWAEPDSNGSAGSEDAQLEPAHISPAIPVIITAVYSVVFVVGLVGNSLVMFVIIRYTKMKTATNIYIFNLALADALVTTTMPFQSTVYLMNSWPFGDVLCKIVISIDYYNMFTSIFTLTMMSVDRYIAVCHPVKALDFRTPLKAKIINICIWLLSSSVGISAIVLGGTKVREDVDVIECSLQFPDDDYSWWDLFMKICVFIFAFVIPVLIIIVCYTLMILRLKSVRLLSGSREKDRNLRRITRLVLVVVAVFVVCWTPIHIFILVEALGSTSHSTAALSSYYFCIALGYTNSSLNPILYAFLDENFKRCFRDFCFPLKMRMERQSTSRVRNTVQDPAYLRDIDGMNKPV
Chain of Transitional endoplasmic reticulum ATPase (Homo sapiens, UniProt P55072) (P55072 whole entry, the tested form may be a part): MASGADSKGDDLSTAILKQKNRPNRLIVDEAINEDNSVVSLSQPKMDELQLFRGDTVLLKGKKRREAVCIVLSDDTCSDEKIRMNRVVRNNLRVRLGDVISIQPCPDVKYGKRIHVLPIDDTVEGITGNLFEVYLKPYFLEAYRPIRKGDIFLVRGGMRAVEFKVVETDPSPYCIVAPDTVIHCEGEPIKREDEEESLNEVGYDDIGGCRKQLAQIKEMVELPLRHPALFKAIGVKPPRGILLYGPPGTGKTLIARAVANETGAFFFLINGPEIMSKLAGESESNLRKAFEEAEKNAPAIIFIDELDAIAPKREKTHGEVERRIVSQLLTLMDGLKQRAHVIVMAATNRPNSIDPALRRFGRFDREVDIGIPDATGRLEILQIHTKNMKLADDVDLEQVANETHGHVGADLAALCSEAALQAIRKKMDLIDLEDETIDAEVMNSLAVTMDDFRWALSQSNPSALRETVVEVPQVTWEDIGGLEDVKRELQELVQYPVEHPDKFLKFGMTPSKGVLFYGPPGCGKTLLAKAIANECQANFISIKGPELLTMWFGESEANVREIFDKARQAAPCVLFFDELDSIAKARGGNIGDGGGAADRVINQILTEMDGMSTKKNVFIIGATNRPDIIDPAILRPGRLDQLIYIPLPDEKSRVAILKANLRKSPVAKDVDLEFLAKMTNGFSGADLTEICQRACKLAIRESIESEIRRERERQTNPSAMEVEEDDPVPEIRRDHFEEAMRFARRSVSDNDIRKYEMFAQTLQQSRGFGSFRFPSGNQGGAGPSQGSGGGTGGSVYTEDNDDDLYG
Chain of Delta-type opioid receptor (P41143 whole entry): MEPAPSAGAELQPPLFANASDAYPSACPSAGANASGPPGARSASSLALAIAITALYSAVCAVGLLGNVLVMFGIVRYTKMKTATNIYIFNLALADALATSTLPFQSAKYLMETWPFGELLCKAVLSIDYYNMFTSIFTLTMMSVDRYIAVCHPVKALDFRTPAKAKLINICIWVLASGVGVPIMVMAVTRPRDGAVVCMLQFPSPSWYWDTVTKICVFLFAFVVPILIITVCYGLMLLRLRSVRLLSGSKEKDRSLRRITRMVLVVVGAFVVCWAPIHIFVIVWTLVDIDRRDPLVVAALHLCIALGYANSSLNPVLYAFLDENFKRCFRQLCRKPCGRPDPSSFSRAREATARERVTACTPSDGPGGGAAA
Chain of Galanin receptor type 2 (O43603 whole entry): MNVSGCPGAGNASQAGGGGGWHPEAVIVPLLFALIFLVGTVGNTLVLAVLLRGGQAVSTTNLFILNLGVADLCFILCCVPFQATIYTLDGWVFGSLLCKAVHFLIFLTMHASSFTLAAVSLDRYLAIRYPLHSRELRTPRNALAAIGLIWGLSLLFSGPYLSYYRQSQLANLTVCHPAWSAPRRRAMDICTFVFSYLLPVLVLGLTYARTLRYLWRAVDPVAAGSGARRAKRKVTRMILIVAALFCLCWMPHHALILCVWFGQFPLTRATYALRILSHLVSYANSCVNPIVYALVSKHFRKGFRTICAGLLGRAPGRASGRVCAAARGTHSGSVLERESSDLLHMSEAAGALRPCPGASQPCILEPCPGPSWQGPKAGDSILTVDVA
Chain of Transitional endoplasmic reticulum ATPase (Homo sapiens, UniProt P55072, C522A) (P55072 2-806 C522A limits assumed): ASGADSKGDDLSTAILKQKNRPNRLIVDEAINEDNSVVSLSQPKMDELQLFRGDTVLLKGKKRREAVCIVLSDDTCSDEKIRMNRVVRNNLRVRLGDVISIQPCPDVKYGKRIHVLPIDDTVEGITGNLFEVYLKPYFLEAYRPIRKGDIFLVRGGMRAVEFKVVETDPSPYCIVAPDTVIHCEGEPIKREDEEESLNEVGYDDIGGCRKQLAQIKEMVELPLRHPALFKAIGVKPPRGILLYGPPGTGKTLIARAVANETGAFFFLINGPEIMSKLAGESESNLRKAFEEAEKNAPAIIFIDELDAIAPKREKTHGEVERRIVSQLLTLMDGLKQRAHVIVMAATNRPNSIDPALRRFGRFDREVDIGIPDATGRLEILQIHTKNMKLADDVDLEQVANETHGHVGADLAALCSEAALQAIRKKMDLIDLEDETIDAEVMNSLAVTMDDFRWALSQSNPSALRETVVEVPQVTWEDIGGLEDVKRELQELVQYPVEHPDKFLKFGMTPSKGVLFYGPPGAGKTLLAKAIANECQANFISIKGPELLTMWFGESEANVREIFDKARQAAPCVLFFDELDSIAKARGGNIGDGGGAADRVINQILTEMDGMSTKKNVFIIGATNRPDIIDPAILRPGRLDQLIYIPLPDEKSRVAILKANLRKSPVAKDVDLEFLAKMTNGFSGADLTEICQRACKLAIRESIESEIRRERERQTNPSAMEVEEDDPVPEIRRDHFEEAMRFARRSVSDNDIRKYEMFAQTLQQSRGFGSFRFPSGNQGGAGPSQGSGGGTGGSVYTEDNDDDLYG
Chain of Mu-type opioid receptor (P35372 whole entry): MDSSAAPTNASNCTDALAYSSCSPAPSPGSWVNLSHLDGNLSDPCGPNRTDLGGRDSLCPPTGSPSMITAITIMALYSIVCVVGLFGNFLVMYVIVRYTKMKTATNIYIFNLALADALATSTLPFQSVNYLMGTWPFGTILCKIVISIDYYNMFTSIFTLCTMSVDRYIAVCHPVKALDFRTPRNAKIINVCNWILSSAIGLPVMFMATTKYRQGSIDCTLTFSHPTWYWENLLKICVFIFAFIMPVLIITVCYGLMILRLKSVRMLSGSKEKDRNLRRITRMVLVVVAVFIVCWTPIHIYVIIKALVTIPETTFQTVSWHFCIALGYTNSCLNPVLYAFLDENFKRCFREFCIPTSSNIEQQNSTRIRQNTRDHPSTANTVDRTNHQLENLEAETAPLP

Question: Which EC50 (cells) does the source give for C1=C(CCNc2[nH]cnc3c4ccccc4nc2-3)CCCC1 here?
Answer: > 29.9 µM (inactive)

Question: And the IC50 (Galanin receptor type 2)?
Answer: > 42 µM (not active)

Question: And the EC50 (Ion channel NompC)?
Answer: > 29.9 µM (inactive)

Question: What about the EC50 (Mucolipin-3) of the same molecule?
Answer: > 29.9 µM (not active)

Question: What about the IC50 (Galanin receptor type 3) of the same molecule?
Answer: 0.383 µM (active)

Question: What about the AC50 (INS1) of the same molecule?
Answer: 0.219 µM (active)

Question: With CCc1ccc(S(=O)(=O)NCc2ccc(C(=O)NCCN(Cc3ccc(C)cc3)C(C)C)cc2)cc1 as the molecule, how does the IC50 [1] read?
Answer: 0.742 µM (active)

Question: And the IC50 [2]?
Answer: 0.173 µM (active)

Question: What about the IC50 (Mu-type opioid receptor) of the same molecule?
Answer: > 32 µM (inactive)

Question: What about the IC50 [3] of the same molecule?
Answer: > 32 µM (inactive)

Question: What does the source list for Cc1ccc(C)c(SCC(=O)OC/C(O)=C(\C#N)c2nc3ccccc3[nH]2)c1?
Answer: EC50 (HEK293 [4]): > 20 µM (inactive); IC50 [5]: > 50 µM (not active); IC50 (HEK293 [6]): > 20 µM (inactive); IC50 [7]: 4.55 µM (active); IC50 [8]: > 20 µM (inactive); EC50 [9]: > 20 µM (inactive); IC50 (HEK293 [10]): 4.92 µM (inactive); IC50 [11]: > 20 µM (inactive); IC50 (Tumor necrosis factor [12]): > 20 µM (inactive); IC50 [13]: > 50 µM (not active); IC50 [14]: 4.21 µM (active); IC50 (HEK293 [15]): > 20 µM (inactive); IC50 (Tumor necrosis factor [16]): > 20 µM (inactive); IC50 (HEK293 [17]): > 20 µM (inactive); IC50 (HEK293 [18]): > 20 µM (inactive); IC50 (HEK293 [19]): > 20 µM (inactive)
